{
  "source": "patent US20140235856A1",
  "about": "“FIBROBLASTS CELLULAR MODEL FOR ASSESSING EFFICACY OF CANCER TREATMENTS BY SHH/PTCH PATHWAY ANTAGONISTS” (CNRS, priority 2011, published 2014)",
  "test_system": "SHH/PTCH pathway (GLI1 mRNA) in NBCCS 6 E6/E7 fibroblasts",
  "experiment": "Comparative Q-PCR analysis of GLI1 mRNA accumulation after treatment of fibroblast cell lines with purmorphamine",
  "format": "cell-based, human",
  "conditions": "NBCCS 6 E6/E7 fibroblasts compared with CTRL E6/E7 fibroblasts, same experimental conditions; 0.1% DMSO; Q-PCR (FIG. 4)",
  "protocol": "Human primary fibroblasts (named CTRL or NBCCS) were isolated from a healthy non photo-exposed skin biopsy of either a control patient or a patient with caracteristic NBCCS after informed consent (Otto et al., 1999; Valin et al., 2009)\nThe CTRL and NBCCS6 cell lines were then immortalized by retroviral transduction with pLE6/E7SN resulting in CTRL and NBCCS-E6-E7 (FIG. 1) (Halbert et al., 1991, 1992). Cells were grown at 37° C. in a humified atmosphere containing 5% CO2, DMEM medium, 50 U/ml penicillin, 50 μg/ml streptomycin, 0.125 μg/ml amphotericin B, 2 mM L-Glutamine, 1 mM Sodium pyruvate, 1× non essential amino acids.\nTotal RNA was extracted with RNeasy® Mini kit according to manufacturer's instructions (Qiagen, Hilden, Germany). Reverse transcription was performed on 1 μg total RNA with Superscript II Reverse Transcriptase (Roche Applied Science, Basel, Switzerland) by using random primers. Q-PCR was carried out using the 7900 HT Fast Real-Time PCR System (Applied Biosystems, Foster City, Calif., USA).\nTo evaluate small Molecules Modulators of the SHH/PTCH pathway, the Purmorphamine (SMO agonist) was used. Purmorphamine (SMO agonist) was diluted in DMSO at stock concentrations of 50 mM and 10 mM, respectively. To avoid side effects and toxicity, the final concentration of DMSO was fixed to 0.1% DMSO.",
  "data": [
    {"smiles": "c1ccc2c(Oc3nc(Nc4ccc(N5CCOCC5)cc4)c4ncn(C5CCCCC5)c4n3)cccc2c1", "note": "[Purmorphamine]", "values": [
      {"measurement": "GLI1 mRNA accumulation response, NBCCS 6 E6/E7 versus CTRL cells", "value": 7, "unit": "× times"}
    ]}
  ]
}
